Calls of active or inactive are those of the source.
Columns and labels:
cells = format: functional
Cytochrome P450 2C9 = Cytochrome P450 2C9 (Homo sapiens, UniProt P11712)
[1] = microbe, parasite or virus in culture; format: functional; conditions: Mycobacterium tuberculosis
[2] = Luminescence Cell-Based Dose Retest to Confirm Inhibitors of Cancer Stem Cells. [Related pubchem assays (depositor defined):AID2717, AID2721]; format: functional; conditions: Homo sapiens
Leucine aminopeptidase = target: T1, Leucine aminopeptidase (Plasmodium falciparum 3D7, UniProt Q8IL11); assay: P. falciparum M17LAP inhibitors, primary screen, biochemical, fluorogenic H-Leu-NHMec substrate, 1536-well (AID 1619); format: functional
T1 sequence (Q8IL11 whole entry): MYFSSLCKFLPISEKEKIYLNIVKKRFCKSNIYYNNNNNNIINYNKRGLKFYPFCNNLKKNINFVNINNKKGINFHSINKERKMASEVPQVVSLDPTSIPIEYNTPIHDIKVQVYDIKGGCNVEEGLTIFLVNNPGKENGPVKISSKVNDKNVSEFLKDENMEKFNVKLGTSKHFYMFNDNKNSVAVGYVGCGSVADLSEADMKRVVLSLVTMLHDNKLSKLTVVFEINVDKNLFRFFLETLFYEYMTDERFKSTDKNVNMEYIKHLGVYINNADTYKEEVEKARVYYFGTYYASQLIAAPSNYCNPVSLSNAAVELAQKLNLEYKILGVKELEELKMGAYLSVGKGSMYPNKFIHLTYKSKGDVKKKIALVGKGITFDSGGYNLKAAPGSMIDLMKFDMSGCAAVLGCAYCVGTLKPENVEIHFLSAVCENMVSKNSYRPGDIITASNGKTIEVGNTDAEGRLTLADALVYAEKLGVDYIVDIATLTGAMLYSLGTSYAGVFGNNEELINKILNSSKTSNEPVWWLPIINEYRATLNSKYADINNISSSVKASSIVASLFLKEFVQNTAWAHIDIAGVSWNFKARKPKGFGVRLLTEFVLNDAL

[3] = NIH-3T3 fibroblast cytotoxicity, dose response, cytotoxicity control, cell-based, fluorescence, Alamar Blue, secondary assay (AID 2327); format: functional;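 note: NIH-3T3 mouse fibroblasts cultured with fluconazole at 8 µg/mL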
[4] = C. albicans growth with fluconazole, confirmation, fluorescence, retest (AID 2467); format: functional, cell-based
[5] = target: Luciferin 4-monooxygenase (Photinus pyralis, UniProt P08659); assay: firefly luciferase enzyme inhibitors, dose response, biochemical, luminescence (AID 1891)
[6] = Luminescence Cell-Based Dose Confirmation HTS to Identify Inhibitors of Platelet Dense Granule Release. [Related pubchem assays: 1663 (Primary HTS), 1678 (Summary of Project)]; format: functional
Cytochrome P450 2D6 = Cytochrome P450 2D6 (Homo sapiens, UniProt P10635);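 note: CYP2D6 member of a cytochrome P450 panel assay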
Cytochrome P450 1A2 = target: T2, Cytochrome P450 1A2 (Homo sapiens, UniProt P05177);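 note: PubChem cytochrome P450 panel assay, CYP1A2 panel member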
T2 sequence (P05177 whole entry): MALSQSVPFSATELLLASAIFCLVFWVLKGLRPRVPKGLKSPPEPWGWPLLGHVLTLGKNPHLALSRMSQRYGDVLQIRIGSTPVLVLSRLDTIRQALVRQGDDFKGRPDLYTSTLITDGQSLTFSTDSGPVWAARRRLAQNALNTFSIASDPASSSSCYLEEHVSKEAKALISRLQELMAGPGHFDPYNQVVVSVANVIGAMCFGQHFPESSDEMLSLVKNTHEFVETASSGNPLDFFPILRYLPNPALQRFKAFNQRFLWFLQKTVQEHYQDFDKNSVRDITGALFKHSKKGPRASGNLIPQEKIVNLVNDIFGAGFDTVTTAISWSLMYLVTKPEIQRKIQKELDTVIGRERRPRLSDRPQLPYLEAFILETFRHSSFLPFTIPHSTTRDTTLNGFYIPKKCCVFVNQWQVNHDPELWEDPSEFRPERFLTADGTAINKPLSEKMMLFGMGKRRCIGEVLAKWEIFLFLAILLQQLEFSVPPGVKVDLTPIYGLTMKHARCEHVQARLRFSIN

Cytochrome P450 2C19 = Cytochrome P450 2C19 (Homo sapiens, UniProt P33261); assay: Cytochrome panel assay with activity outcomes. Panel member name: p450-cyp2c19 Compounds with AC50 equal or less than 10 uM are considered active; format: functional; conditions: read-out: AC50
H9c2 = assay: cells; format: functional, cell-based; conditions: Rattus norvegicus, H9c2, Myocardium;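 note: confirmatory concentration-response retest of ultra-high-throughput screening hits for modulation of myocardial damage; cell death induced by hydrogen peroxide oxidative stress; compound pretreatment for 60 min then peroxide exposure for 2 h; potency is for protecting the cells against peroxide damage rather than for killing them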
Cytochrome P450 3A4 = Cytochrome P450 3A4 (Homo sapiens, UniProt P08684);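 note: CYP3A4 tested as one member of a cytochrome P450 panel screen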
INS1 = assay: beta cell apoptosis inhibitors, cytokine rescue, dose response, luminescence, retest (AID 449756); format: functional, cell-based; conditions: Rattus norvegicus;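 note: cell death triggered by IL-1 beta plus TNF-alpha plus IFN-gamma mixture; protective hits raise ATP signal compared with cytokine alone wells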
[7] = Shn3 3'UTR reporter inhibitors, dose response, cell-based, Clone20 osteoblasts, firefly luciferase, cherry-picked (AID 624132); format: functional;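 note: firefly luciferase luminescence from reporter carrying the Shn3 3'UTR in osteoblasts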
[8] = HepG2 cell cytotoxicity, dose response, cytotoxicity control for Shn3 inhibitor project, CellTiter-Glo, cherry-picked (AID 624134); format: functional, cell-based
[9] = control 3'UTR Renilla luciferase suppression, dose response, counter-screen for Shn3 inhibitor project, cell-based, Clone20-Shn3RL, cherry-picked (AID 624133); format: functional
Protein skinhead-1 = target: T3, Protein skinhead-1 (Caenorhabditis elegans, UniProt P34707); format: functional
T3 sequence (P34707 whole entry): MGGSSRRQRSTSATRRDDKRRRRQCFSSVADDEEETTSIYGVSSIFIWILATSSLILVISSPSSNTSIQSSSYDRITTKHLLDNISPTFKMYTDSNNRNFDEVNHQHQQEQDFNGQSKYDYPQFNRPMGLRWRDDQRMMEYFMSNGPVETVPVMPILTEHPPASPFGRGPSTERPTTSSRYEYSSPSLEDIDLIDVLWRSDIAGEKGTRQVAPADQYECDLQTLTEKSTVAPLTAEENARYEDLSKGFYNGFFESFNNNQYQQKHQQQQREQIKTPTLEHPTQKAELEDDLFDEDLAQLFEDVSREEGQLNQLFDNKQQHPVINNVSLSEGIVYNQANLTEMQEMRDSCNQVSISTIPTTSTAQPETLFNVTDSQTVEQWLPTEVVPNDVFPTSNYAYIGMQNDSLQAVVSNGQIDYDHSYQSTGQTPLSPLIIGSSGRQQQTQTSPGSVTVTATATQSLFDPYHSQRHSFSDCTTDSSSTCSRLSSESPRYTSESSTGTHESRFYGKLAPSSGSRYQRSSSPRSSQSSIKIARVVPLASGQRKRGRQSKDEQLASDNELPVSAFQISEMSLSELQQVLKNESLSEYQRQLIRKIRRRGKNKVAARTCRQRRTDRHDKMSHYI

P388/ADR = assay: cells; format: functional; conditions: Mus musculus
SN12K1 = assay: cells; format: functional; conditions: Homo sapiens
P388 = assay: cells; format: functional; conditions: Mus musculus
[10] = inhibitors of HIV Env-driven cell fusion, dose response, cherry-pick (AID 652057); format: functional, cell-based

Sequence of Cytochrome P450 2C9 (P11712 whole entry): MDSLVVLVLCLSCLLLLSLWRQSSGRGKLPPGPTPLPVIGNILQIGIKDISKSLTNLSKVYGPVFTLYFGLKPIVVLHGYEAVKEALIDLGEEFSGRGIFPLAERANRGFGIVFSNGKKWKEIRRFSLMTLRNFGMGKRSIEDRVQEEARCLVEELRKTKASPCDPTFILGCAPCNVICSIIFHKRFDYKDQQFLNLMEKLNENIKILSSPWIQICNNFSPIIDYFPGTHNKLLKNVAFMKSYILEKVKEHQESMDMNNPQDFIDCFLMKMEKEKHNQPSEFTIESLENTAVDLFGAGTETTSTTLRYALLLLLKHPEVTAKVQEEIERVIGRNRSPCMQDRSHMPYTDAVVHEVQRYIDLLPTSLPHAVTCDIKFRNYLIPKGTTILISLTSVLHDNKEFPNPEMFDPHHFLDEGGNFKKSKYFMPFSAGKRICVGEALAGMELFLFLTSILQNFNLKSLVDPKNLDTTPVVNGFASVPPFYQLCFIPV
Sequence of Cytochrome P450 2C19 (P33261 whole entry): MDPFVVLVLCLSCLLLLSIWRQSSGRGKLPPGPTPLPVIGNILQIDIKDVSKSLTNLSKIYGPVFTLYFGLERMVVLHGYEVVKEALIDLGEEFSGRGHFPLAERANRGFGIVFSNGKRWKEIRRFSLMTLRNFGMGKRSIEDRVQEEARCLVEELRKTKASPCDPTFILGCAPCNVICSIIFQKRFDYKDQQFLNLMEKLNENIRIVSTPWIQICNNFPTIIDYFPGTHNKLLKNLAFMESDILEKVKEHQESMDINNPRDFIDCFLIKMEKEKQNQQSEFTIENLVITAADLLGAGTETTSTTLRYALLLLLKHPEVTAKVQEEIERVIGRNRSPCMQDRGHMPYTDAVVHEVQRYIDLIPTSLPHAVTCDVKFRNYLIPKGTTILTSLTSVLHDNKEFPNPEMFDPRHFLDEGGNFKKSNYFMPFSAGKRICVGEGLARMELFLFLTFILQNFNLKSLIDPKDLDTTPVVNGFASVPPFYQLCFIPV
Sequence of Cytochrome P450 3A4 (P08684 whole entry): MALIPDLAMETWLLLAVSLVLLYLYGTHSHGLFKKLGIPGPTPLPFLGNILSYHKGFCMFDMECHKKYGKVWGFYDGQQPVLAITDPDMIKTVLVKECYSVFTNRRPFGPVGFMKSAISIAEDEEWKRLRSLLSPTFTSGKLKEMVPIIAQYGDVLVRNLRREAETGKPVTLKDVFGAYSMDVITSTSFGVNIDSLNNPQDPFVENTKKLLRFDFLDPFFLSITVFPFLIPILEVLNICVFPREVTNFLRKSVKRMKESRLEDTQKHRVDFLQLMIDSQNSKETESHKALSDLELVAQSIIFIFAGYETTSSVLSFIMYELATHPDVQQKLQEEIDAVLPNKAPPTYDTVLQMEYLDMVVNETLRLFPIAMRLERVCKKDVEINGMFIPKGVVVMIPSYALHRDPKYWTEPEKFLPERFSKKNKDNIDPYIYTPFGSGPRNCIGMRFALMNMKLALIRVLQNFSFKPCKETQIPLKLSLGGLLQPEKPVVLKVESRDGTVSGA
Sequence of Luciferin 4-monooxygenase (P08659 whole entry): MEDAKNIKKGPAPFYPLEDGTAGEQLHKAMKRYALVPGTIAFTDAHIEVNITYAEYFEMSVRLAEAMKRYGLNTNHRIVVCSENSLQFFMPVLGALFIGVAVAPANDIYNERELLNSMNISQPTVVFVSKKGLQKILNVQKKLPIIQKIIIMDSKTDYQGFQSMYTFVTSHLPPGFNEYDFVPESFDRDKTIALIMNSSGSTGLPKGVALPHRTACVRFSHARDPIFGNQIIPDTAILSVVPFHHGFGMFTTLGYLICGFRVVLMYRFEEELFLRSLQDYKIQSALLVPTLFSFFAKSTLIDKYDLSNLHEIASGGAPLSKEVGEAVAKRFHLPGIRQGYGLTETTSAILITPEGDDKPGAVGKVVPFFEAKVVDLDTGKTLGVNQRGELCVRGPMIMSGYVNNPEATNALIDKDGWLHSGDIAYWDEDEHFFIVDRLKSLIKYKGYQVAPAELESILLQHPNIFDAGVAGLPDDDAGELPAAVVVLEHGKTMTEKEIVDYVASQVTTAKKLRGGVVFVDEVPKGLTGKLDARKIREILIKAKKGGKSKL
Sequence of Cytochrome P450 2D6 (P10635 whole entry): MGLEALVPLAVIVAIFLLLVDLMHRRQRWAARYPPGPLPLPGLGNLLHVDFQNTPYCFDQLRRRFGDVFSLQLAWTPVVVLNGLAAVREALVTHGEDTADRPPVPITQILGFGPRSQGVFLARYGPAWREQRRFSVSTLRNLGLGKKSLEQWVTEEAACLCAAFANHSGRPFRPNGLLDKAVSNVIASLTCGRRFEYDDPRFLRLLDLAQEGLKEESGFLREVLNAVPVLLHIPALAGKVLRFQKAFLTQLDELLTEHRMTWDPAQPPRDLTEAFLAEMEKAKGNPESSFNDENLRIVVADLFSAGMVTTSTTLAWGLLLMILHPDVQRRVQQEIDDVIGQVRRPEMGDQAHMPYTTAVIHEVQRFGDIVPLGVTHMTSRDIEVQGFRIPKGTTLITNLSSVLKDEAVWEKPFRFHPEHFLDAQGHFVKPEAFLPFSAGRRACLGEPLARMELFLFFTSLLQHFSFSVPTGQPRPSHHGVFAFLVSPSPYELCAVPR

CCCNC(=O)COC(=O)c1cc2c(=O)n3ccccc3nc2s1
IC50 (cells): 39.2 µM (active)

Cc1cc2nnc(SCC(=O)OC(C)C)n2c2ccccc12
AC50 (Cytochrome P450 2C9): inconclusive

COc1cc(/C=C(\C#N)C(=O)NCC2CCCO2)c([N+](=O)[O-])cc1OC (configuration not stated)
AC50 (Cytochrome P450 2C9): inconclusive

CCCOc1ccc2c(c1)C(=NN=C(N)N)c1cc(OCCC)ccc1-2
CC50 [1]: 12.2 µM (active)
AC50 [2]: 3.33 µM (active)

Cc1cc(NS(=O)(=O)c2ccc(NC(=O)c3cnc4scc(C)n4c3=O)cc2)nc(C)n1
IC50 (Leucine aminopeptidase): 23.1 µM (active)

CCOc1ccc(CN(C(=O)c2oc3ccccc3c2C)C2CCS(=O)(=O)C2)cc1 (configuration not stated)
EC50 [3]: > 160 µM (inconclusive)
EC50 [4]: > 38 µM (not active)
EC50 [5]: 28.3 µM (active)
EC50 [6]: > 112 µM (not active)
AC50 (Cytochrome P450 2D6): 14.1 µM (inconclusive)
AC50 (Cytochrome P450 1A2): 14.1 µM (inconclusive)

CCC(C)NC(=O)NC(=O)N(C1CCCCC1)S(C)(=O)=O (configuration not stated)
AC50 (Cytochrome P450 2C19): 17.8 µM (inconclusive)
AC50 (Cytochrome P450 2C9): inconclusive

CC(C)(C)NC(=O)c1cc(NC(=O)c2cccs2)cc(NC(=O)c2cccs2)c1
IC50 (H9c2): 11.1 µM (active)

C[C@H](NC(=O)c1[nH]cnc1C(=O)NCC(=O)OCc1ccccc1)C(=O)OCc1ccccc1
IC50 (H9c2): 19.4 µM (active)

COC(=O)c1cc(OC)c(OC)cc1NC(=O)c1ccc(OC)c(OC)c1
IC50 (H9c2): > 79 µM (inactive)

COc1ccc(S(=O)(=O)N(C)CC(=O)NCc2ccco2)cc1
AC50 (Cytochrome P450 3A4): 15.8 µM (inconclusive)
AC50 (Cytochrome P450 2C9): inconclusive

Clc1ccc(Cl)c(OCc2cc(-c3ccccc3Cl)on2)c1
AC50 (Cytochrome P450 2C19): 0.891 µM (inconclusive)
AC50 (Cytochrome P450 1A2): 0.282 µM (inconclusive)
AC50 (Cytochrome P450 2C9): inconclusive

Clc1ccc(-c2[nH]ncc2N=Nc2ccccc2)cc1
CC50 [1]: > 40 µM (active)
AC50 (INS1): > 120 µM (inactive)

Cc1ccc(-c2ccc(=O)n(CC(=O)NCCN3CCCCC3C)n2)cc1 (configuration not stated)
AC50 (Cytochrome P450 2C19): 35.5 µM (inconclusive)
AC50 (Cytochrome P450 3A4): 17.8 µM (inconclusive)
AC50 (Cytochrome P450 2C9): inconclusive

O=C(OCC(=O)N1CCCCC1)c1cc2ccccc2cc1O
IC50 (cells): 5.15 µM (active)

NC(=O)c1ccc(Nc2nnc(-c3ccc(O)cc3)c3ccccc23)cc1
EC50 [3]: > 150 µM (inactive)
EC50 [4]: > 38 µM (not active)
IC50 (H9c2): 15 µM (active)

CCOC(=O)Cn1c(=S)[nH]c2c(oc3ccc(Cl)cc32)c1=O
IC50 (Leucine aminopeptidase): 19.5 µM (active)

CSc1ncc(C(=O)Nc2ccc(Br)cn2)c(C)n1
CC50 [1]: > 40 µM (active)

CC1Nc2ncnc(N3CCN(c4ccccc4)CC3)c2N(Cc2ccc(Br)cc2)C1=O (configuration not stated)
CC50 [1]: > 40 µM (active)
IC50 (H9c2): > 79 µM (inactive)

Cc1ccc(S(=O)(=O)N2CCOCC2)cc1C(=O)Nc1nc(-c2ccccn2)cs1
AC50 (INS1): 2.19 µM (active)
IC50 (H9c2): 11.3 µM (active)

COc1ccc(Sc2nc3ccccc3n3c(C(F)(F)F)nnc23)cc1
AC50 (Cytochrome P450 2C19): 35.5 µM (inconclusive)
AC50 (Cytochrome P450 1A2): 3.16 µM (inconclusive)
AC50 (Cytochrome P450 2C9): inconclusive

CCc1nc(N2CCN(C(C)=O)CC2)c2c3c(sc2n1)CC(C(C)(C)C)CC3 (configuration not stated)
CC50 [1]: > 40 µM (active)
AC50 (INS1): 3.36 µM (active)
AC50 [7]: 6.76 µM (active)
AC50 [8]: 58.6 µM (active)
AC50 [9]: 11.3 µM (active)

O=C(NCc1cccs1)c1cc(-c2ccc(O)cc2)on1
IC50 (cells): 45 µM (active)

O=S(=O)(Nc1ccc(C(F)(F)F)cc1)c1c[nH]cn1
IC50 (Leucine aminopeptidase): 28.3 µM (active)
IC50 (Protein skinhead-1): > 100 µM (inactive)

Cc1ccc(-n2cc(-c3ccccc3)c3c(N4CCOCC4)ncnc32)cc1
IC50 (H9c2): > 79 µM (inactive)

CSc1nnc(NC(=O)c2cc3ccccc3oc2=O)s1
IC50 (H9c2): > 79 µM (inactive)

CCS(=O)(=O)N1CCC(C(=O)NCc2ccccc2OC)CC1
AC50 (Cytochrome P450 2C9): inconclusive

O=C(COC(=O)c1ccc([N+](=O)[O-])o1)Nc1ccc(N2CCOCC2)cc1
IC50 (H9c2): > 79 µM (inactive)

COc1ccc(C2CC(c3sc(Nc4ccc(C)cc4)nc3C)=NN2)cc1 (configuration not stated)
GI50 (P388/ADR): 4.99 µM (inactive)
GI50 (SN12K1): 14.9 µM (inactive)
GI50 (P388): 6.79 µM (inactive)

O=NN(CCCl)C(=O)N[C@H]1CC[C@H](C(=O)O)CC1
GI50 (P388/ADR): 7.1 µM (inactive)
GI50 (SN12K1): > 100 µM (inactive)
GI50 (P388): 4.86 µM (inactive)

NC(CN(O)N=O)C(=O)O (configuration not stated)
GI50 (P388/ADR): 8.45 µM (inactive)
GI50 (SN12K1): 0.792 µM (active)
GI50 (P388): 16.5 µM (inactive)

C[C@@H]1CN([C@@H](C)CO)C(=O)Cc2cc(NC(=O)c3ccncc3)ccc2O[C@H]1CN(C)Cc1ccc(Cl)c(Cl)c1
AC50 [10]: 30.4 µM (active)

C=C1CC(OC)(C(O)C(=O)N[C@H]2OCO[C@H]3C2O[C@H](C[C@@H](COC)OC)C(C)(C)C3OC)O[C@H](C)[C@@H]1C (some centres not stated)
GI50 (P388/ADR): < 0.00482 µM (active)
GI50 (SN12K1): < 0.00482 µM (active)
GI50 (P388): < 0.00482 µM (active)

C=C1C(=O)C[C@@]23CCC[C@@]12CC(OCOC)C3 (some centres not stated)
GI50 (P388/ADR): 0.531 µM (active)
GI50 (SN12K1): 1.84 µM (inactive)
GI50 (P388): 0.431 µM (active)

CN1C(=O)/C(=C/c2ccco2)S/C1=N/c1cccc(C(=O)O)c1
IC50 (Leucine aminopeptidase): 50.6 µM (active)

FC(F)(F)c1ccc(/C=N/N2CCN(Cc3cccc4ccccc34)CC2)cc1
AC50 (Cytochrome P450 2C19): 11.2 µM (inconclusive)
AC50 (Cytochrome P450 2C9): inconclusive

NC(=O)c1ncn2c1NC(=O)CC2
GI50 (P388/ADR): > 100 µM (inactive)
GI50 (SN12K1): > 100 µM (inactive)
GI50 (P388): > 31.6 µM (inactive)

COc1cc(NS(C)(=O)=O)ccc1Nc1c2ccccc2nc2ccccc12 [AMSACRINE]
GI50 (P388/ADR): 0.265 µM (active)
GI50 (SN12K1): 0.106 µM (active)
GI50 (P388): 0.0318 µM (active)
AC50 (Cytochrome P450 3A4): 20 µM (inconclusive)
AC50 (Cytochrome P450 2C9): inconclusive

COc1cc(C[C@H]2c3cc(OC)c(OC)cc3CCN2C)c(Oc2cc3c(cc2OC)-c2c(OC)c(OC)cc4c2[C@H](C3)N(C)CC4)cc1OC [THALICARPINE]
GI50 (P388/ADR): 8.51 µM (inactive)
GI50 (SN12K1): 7.93 µM (inactive)
GI50 (P388): 4.24 µM (inactive)
